The results in this text go back to ChEMBL document CHEMBL4613212, “Insights of synthetic analogues of anti-leprosy agents” (Bioorg Med Chem, 2019).

≈ marks a conversion by molar mass, not a printed value.

What all share (assay type): functional
Assay [1] concerns Mycobacterium leprae. The experiment in a line: Antimicrobial activity against Mycobacterium leprae assessed as fractional inhibitory concentration index at 1.5 ug/ml in presence of 0.1 ug/ml rifabutin measured at 4 weeks.
For assay [2], the system named is Mycolicibacterium fortuitum. The experiment in a line: Antimicrobial activity against Mycobacterium fortuitum incubated for 24 hrs by broth microdilution assay. Background: Broth dilution looks for growth in wells or tubes with falling amounts of substance.
Assay [3] concerns Mycobacterium leprae. The experiment in a line: Antimicrobial activity against Mycobacterium leprae assessed as fractional inhibitory concentration index at 1.5 ug/ml in presence of 0.2 ug/ml rifampin measured at 4 weeks.
For assay [4], the system named is Mycobacterium leprae. The experiment in a line: Antimicrobial activity against Mycobacterium leprae assessed as microbial growth at 1.5 ug/ml in presence of 0.025 ug/ml KRM-1648 measured at 4 weeks (reference value: 147 +/- 19.1%).
The test system of assay [5] is Mycobacterium leprae. The experiment in a line: Antimicrobial activity against Mycobacterium leprae assessed as microbial growth at 1.5 ug/ml in presence of 0.05 ug/ml rifabutin measured at 4 weeks (reference value: 147 +/- 19.1%).
For the next assay, the system named is Mycolicibacterium aurum. The experiment in a line: Antimicrobial activity against Mycobacterium aurum incubated for 24 hrs by broth microdilution assay.
A further assay has as its system Mycolicibacterium vaccae. The experiment in a line: Antimicrobial activity against Mycobacterium vaccae incubated for 24 hrs by broth microdilution assay.
Assay [6] deals with Mycolicibacterium smegmatis. The experiment in a line: Antimicrobial activity against Mycobacterium smegmatis incubated for 24 hrs by broth microdilution assay.
Assay [7] concerns Mycobacterium leprae. The experiment in a line: Antimicrobial activity against Mycobacterium leprae assessed as microbial growth at 1.5 ug/ml in presence of 0.1 ug/ml rifabutin measured at 4 weeks (reference value: 147 +/- 19.1%).
Assay [8] concerns Mycobacterium leprae. The experiment in a line: Antimicrobial activity against Mycobacterium leprae assessed as fractional inhibitory concentration index at 1.5 ug/ml in presence of 0.025 ug/ml KRM-1648 measured at 4 weeks.
The test system of assay [9] is Mycobacterium leprae. The experiment in a line: Antimicrobial activity against Mycobacterium leprae assessed as microbial growth at 1.5 ug/ml in presence of 0.0125 ug/ml KRM-1648 measured at 4 weeks (reference value: 147 +/- 19.1%).
The test system of assay [10] is Mycobacterium leprae. The experiment in a line: Antimicrobial activity against Mycobacterium leprae assessed as microbial growth at 1.5 ug/ml in presence of 0.2 ug/ml rifampin measured at 4 weeks (reference value: 147 +/- 19.1%).
The test system of assay [11] is Mycobacterium leprae. The experiment in a line: Antimicrobial activity against Mycobacterium leprae assessed as microbial growth at 1.5 ug/ml in presence of 0.1 ug/ml rifampin measured at 4 weeks (reference value: 147 +/- 19.1%).
For assay [12], the system named is Mycobacterium leprae. The experiment in a line: Anti-leprotic activity against Mycobacterium leprae infected in BALB/c weanling mouse assessed as bacteria killing at 150 mg/kg, ip administrated for 60 days and measured after 1 year by Spearman-Karber technique analysis relative to control.
Assay [13] has as its system Mycobacterium leprae. The experiment in a line: Anti-leprotic activity against Mycobacterium leprae infected in BALB/c weanling mouse assessed as bacteria killing at 150 mg/kg, ip administrated cotreated with 0.0001% dietary dapsone for 60 days and measured after 1 year by most probable number technique analysis relative to control.
The test system of assay [14] is Mycobacterium tuberculosis. The experiment in a line: Antimycobacterial activity against Mycobacterium tuberculosis H37Rv by BACTEC radiometric growth assay.
For assay [15], the system named is Mycobacterium leprae. The experiment in a line: Anti-leprotic activity against Mycobacterium leprae infected in BALB/c weanling mouse assessed as bacteria killing at 150 mg/kg, ip administrated for 60 days and measured after 1 year by most probable number technique analysis relative to control.
Assay [16] has as its system Mycobacterium leprae. The experiment in a line: Anti-leprotic activity against Mycobacterium leprae infected in BALB/c weanling mouse assessed as bacteria killing at 150 mg/kg, ip administrated cotreated with 0.0001% dietary dapsone for 60 days and measured after 1 year by Spearman-Karber technique analysis relative to control.
Assay [17] relates to Mycobacterium leprae. The experiment in a line: Anti-leprotic activity against Mycobacterium leprae infected in BALB/c mouse assessed as time delay in bacterial multiplication in footpad at 0.003 g/100g of diet administered via feed starting 60 or 75 day post infection up to 90 days by Shepard's kinetic method.
The test system of assay [18] is Mycolicibacterium smegmatis. The experiment in a line: Antimycobacterial activity against DDS resistant Mycobacterium smegmatis ATCC 607 […].
The subject of assay [19] is Mycolicibacterium smegmatis. The experiment in a line: Antimycobacterial activity against DDS sensitive Mycobacterium smegmatis ATCC 607 […].

A word on the MIC: it is the smallest concentration in the dilution series that meets the test's criterion for growth inhibition. A low value points to greater potency. In the case of `O=C(O)c1cn(C2CC2)c2cc(N3CCNCC3)c(F)cc2c1=O` [CIPROFLOXACIN], the “fractional inhibitory concentration index (FICI)” value with Mycobacterium leprae [1], with Mycobacterium leprae [3] and with Mycobacterium leprae [8] was 1 each time. Besides, the MIC is 0.05 µg/mL (≈ 0.151 µM) in [2], less than 0.05 µg/mL against Mycolicibacterium aurum, 0.4 µg/mL (≈ 1.21 µM) with Mycolicibacterium vaccae and 0.8 µg/mL (≈ 2.41 µM) in assay [6]. In addition, the Activity is 0% with Mycobacterium leprae [4]; 21% in the assay on Mycobacterium leprae [5]; 0% with Mycobacterium leprae [7]; 19% in the assay on Mycobacterium leprae [9]; 0% in the assay with Mycobacterium leprae [10]; 28% in the assay with Mycobacterium leprae [11].
As to `CN[C@@H]1[C@H](O[C@H]2[C@H](O[C@H]3[C@H](O)[C@@H](O)[C@H](N=C(N)N)[C@@H](O)[C@@H]3N=C(N)N)O[C@@H](C)[C@]2(O)C=O)O[C@@H](CO)[C@H](O)[C@H]1O` [STREPTOMYCIN], the Activity in the assay with Mycobacterium leprae [12] amounted to 97%; in the assay on Mycobacterium leprae [13], 95.7%; with Mycobacterium leprae [15] it was 97.2%; in the assay on Mycobacterium leprae [16] it was 95%. The MIC in assay [14] stood at 2 µg/mL (≈ 3.44 µM).
Consider `Nc1ccc(S(=O)(=O)c2cccc(N)c2)cc1`, for which, in the assay with Mycobacterium leprae [17], the Time is 133 days. For the same compound, the MIC in assay [18] stood at 1300 µg/mL (≈ 5240 µM); in assay [19], 24.2 µg/mL (≈ 97.5 µM).
